{"source": "paper PMC10891214", "about": "“Effects of food and ethnicity on the pharmacokinetics of venadaparib, a next-generation PARP inhibitor, in healthy Korean, Caucasian, and Chinese male subjects” (Investigational New Drugs, 2023)", "key": {"PARP": {"test_system": "PARP", "design": "method as in PMID 36808277, PMID 24162931, PMID 33657415", "settings": "cited from earlier work"}, "[1]": {"experiment": "Pharmacokinetics after a single oral administration of venadaparib 80 mg (fasted or fed state) in healthy male subjects", "format": "in vivo, human", "settings": "for AUCinf / AUClast / CL/F / Cmax / Vd/F / t1/2 / Tmax: 80 mg single oral; for AUCinf / AUClast / CL/F / Cmax / Vd/F / t1/2: mean ± SD; for Tmax: median (minimum–maximum); for AUCinf geometric mean ratio (90% confidence interval) / AUClast geometric mean ratio (90% confidence interval) / Cmax geometric mean ratio (90% confidence interval): fed to fasted state", "protocol": "A randomized, open-label, single-dose, two-sequence, and two-period crossover study was conducted with 12 Korean and 12 Caucasian subjects. Subjects in each ethnic group were randomly assigned to one of the two sequences at a ratio of 1:1 (Fig. 1). The subjects were orally administered 80 mg of venadaparib in each treatment period (fasted or fed state), following an overnight fast of at least 10 h. There was a seven-day washout between the two treatment periods. In the fed state, the subjects consumed an entire high-fat meal (total of 800–1000 kcal, fat of 500–600 kcal) within 20 min and were subsequently administered the study drug with 240 mL of water 30 min after the start of the meal. An open-label, single-dose study was conducted on 12 Chinese subjects who received 80 mg of venadaparib only in the fasted state (Fig. 1).\nBased on the PK results of venadaparib in a previous study (NCT03317743), serial blood samples for the PK analysis of venadaparib were collected at 0 (pre-dose), 0.25, 0.5, 1, 2, 3, 4, 6, 8, 10, 12, 24, 36, 48, and 72 h post-dose for all treatment and ethnic groups. The blood samples were collected in a K2-ethylenediaminetetraacetic acid (EDTA) vacutainer, centrifuged at 4 ℃ and 3000 rpm for 10 min, and stored at − 70 ℃ until analysis.\nPlasma concentrations of venadaparib were determined using validated high-performance liquid chromatography (Exion LC, AB Sciex) coupled with mass spectrometry (Triple Quad 5500+, AB Sciex). Venadaparib as an analyte and olaparib as the internal standard were separated using a Gemini 3 μm NX-C18 110 Å (100 × 3 mm) column (Phenomenex, CA, USA) at 40 ℃. The mobile phase comprised 0.1% formic acid in distilled water and 100% acetonitrile at a flow rate of 0.3 mL/minute. Venadaparib and olaparib were detected with a turbo-ion spray in positive ionization mode at an m/z transition of 407.2 → 70.0 and 435.2 → 281.1, respectively.\nThe calibration curve for venadaparib ranged from 5 to 5000 μg/L, with precision and accuracy ranging from 1.89 to 4.00% and 92.98 to 102.80%, respectively. For the quality control sample data of venadaparib, the precision and accuracy ranged from 4.38 to 5.18% and 96.75 to 102.59%, respectively.\nThe PK parameters of venadaparib were calculated by a non-compartmental method using Phoenix WinNonlin software version 8.3.4 (Certara, NJ, USA). The area under the plasma concentration-time curve (AUC) was determined using the linear-up log-down trapezoidal method. The primary PK parameters were Cmax and AUC from time zero to the last measurable time point (AUClast) for comparison between the exposures to the effects of food and ethnicity. The following secondary PK parameters were calculated: AUC from time zero to infinity (AUCinf), time to reach Cmax (Tmax), t1/2, apparent total clearance (CL/F), and apparent volume of distribution (Vd/F).\nStatistical analyses were conducted using SAS software version 9.4 (SAS Institute Inc., NC, USA). The primary PK parameters in the fed and fasted states were compared by estimating the geometric mean ratios and 90% confidence intervals using a linear mixed-effects model. The model included the sequence, period, and treatment as fixed effects, and the subject nested within the sequence as a random effect. Analysis of variance (ANOVA) tests were conducted to assess possible differences in the values of the primary PK parameters among the ethnic groups in the fasted state."}, "PARP1": {"test_system": "PARP1", "design": "method as in PMID 36808277", "settings": "cited from earlier work"}, "[2]": {"settings": "in vivo", "experimental": "Safety was assessed in all subjects who received the study drug at least once throughout the study based on adverse event (AE) monitoring, physical examinations, vital signs, 12-lead electrocardiograms (ECGs), and clinical laboratory tests.\nTo support the evaluation of the relationship between concentration and QT/corrected QT (QTc) interval effects in the early stage of the clinical development of venadaparib, triplicate ECG tests were conducted in the middle of the study [22]. A triplicate ECG test was conducted in three Caucasian and five Chinese subjects after the protocol amendment. […] Fridericia’s corrected QT interval (QTcF) was collected, along with the existing ventricular rate, PR interval, QRS duration, QT interval, and QTcB. Triplicate ECGs were measured three times at intervals of 30 s to 2 min at each time point after at least 5 min of resting, and the median value of the three measurements was considered a representative value. QTcF and QTcB were calculated using the following population-derived correction equations: QTcF = QT/RR^0.33 and QTcB = QT/RR^0.5 [22]."}, "[3]": {"test_system": "patient-derived xenograft", "design": "method as in PMID 36808277", "settings": "patient-derived xenograft mouse model; cited from earlier work"}, "[4]": {"settings": "Caucasian, fasted state (N = 12)"}}, "data": [{"smiles": "O=C(c1cc(Cc2n[nH]c(=O)c3ccccc23)ccc1F)N1CC(CNC2CC2)C1", "note": "[venadaparib]", "values": [{"measurement": "Activity of trapping PARP, relative to talazoparib", "setting": "PARP", "result": "comparable"}, {"measurement": "AUCinf", "setting": "[1]; [4]", "result": "14.20262 ± 4.35238", "unit": "µg·h/mL"}, {"measurement": "AUClast", "setting": "[1]; [4]", "result": "14.09132 ± 4.28515", "unit": "µg·h/mL"}, {"measurement": "CL/F", "setting": "[1]; [4]", "result": "6.10 ± 1.73", "unit": "L/h"}, {"measurement": "Cmax", "setting": "[1]; [4]", "result": "2.39229 ± 0.46448", "unit": "µg/mL"}, {"measurement": "Vd/F", "setting": "[1]; [4]", "result": "72.52 ± 18.25", "unit": "L"}, {"measurement": "t1/2", "setting": "[1]; [4]", "result": "9.32 ± 4.98", "unit": "h"}, {"measurement": "Tmax", "setting": "[1]; [4]", "result": "0.50 (0.50–2.00) h"}, {"measurement": "AUCinf", "setting": "[1]; Caucasian, fed state (N = 12)", "result": "13.7522 ± 4.52249", "unit": "µg·h/mL"}, {"measurement": "AUClast", "setting": "[1]; Caucasian, fed state (N = 12)", "result": "13.55703 ± 4.4016", "unit": "µg·h/mL"}, {"measurement": "CL/F", "setting": "[1]; Caucasian, fed state (N = 12)", "result": "6.33 ± 1.78", "unit": "L/h"}, {"measurement": "Cmax", "setting": "[1]; Caucasian, fed state (N = 12)", "result": "1.8943 ± 0.60249", "unit": "µg/mL"}, {"measurement": "Vd/F", "setting": "[1]; Caucasian, fed state (N = 12)", "result": "124.29 ± 71.28", "unit": "L"}, {"measurement": "t1/2", "setting": "[1]; Caucasian, fed state (N = 12)", "result": "14.16 ± 7.16", "unit": "h"}, {"measurement": "Tmax", "setting": "[1]; Caucasian, fed state (N = 12)", "result": "2.00 (1.00–4.00) h"}, {"measurement": "AUCinf geometric mean ratio (90% confidence interval)", "setting": "[1]; Caucasian, 80 mg", "result": "0.96 (0.9074–1.0260)"}, {"measurement": "AUClast geometric mean ratio (90% confidence interval)", "setting": "[1]; Caucasian, 80 mg", "result": "0.96 (0.9017–1.0186)"}, {"measurement": "Cmax geometric mean ratio (90% confidence interval)", "setting": "[1]; Caucasian, 80 mg", "result": "0.77 (0.6871–0.8609)"}, {"measurement": "Decrease of Cmax in the fed state compared with the fasted state", "setting": "[1]; Caucasians, 80 mg", "result": 23, "unit": "%"}, {"measurement": "AUCinf", "setting": "[1]; Chinese, fasted state (N = 12)", "result": "14.98187 ± 4.27666", "unit": "µg·h/mL"}, {"measurement": "AUClast", "setting": "[1]; Chinese, fasted state (N = 12)", "result": "14.87851 ± 4.25497", "unit": "µg·h/mL"}, {"measurement": "CL/F", "setting": "[1]; Chinese, fasted state (N = 12)", "result": "5.84 ± 2.02", "unit": "L/h"}, {"measurement": "Cmax", "setting": "[1]; Chinese, fasted state (N = 12)", "result": "2.39012 ± 0.57602", "unit": "µg/mL"}, {"measurement": "Vd/F", "setting": "[1]; Chinese, fasted state (N = 12)", "result": "53.23 ± 20.51", "unit": "L"}, {"measurement": "t1/2", "setting": "[1]; Chinese, fasted state (N = 12)", "result": "6.95 ± 4.18", "unit": "h"}, {"measurement": "Tmax", "setting": "[1]; Chinese, fasted state (N = 12)", "result": "1.00 (0.50–2.00) h"}, {"measurement": "AUCinf", "setting": "[1]; Korean, fasted state (N = 12)", "result": "12.45318 ± 3.56566", "unit": "µg·h/mL"}, {"measurement": "AUClast", "setting": "[1]; Korean, fasted state (N = 12)", "result": "12.34713 ± 3.5143", "unit": "µg·h/mL"}, {"measurement": "CL/F", "setting": "[1]; Korean, fasted state (N = 12)", "result": "6.92 ± 1.95", "unit": "L/h"}, {"measurement": "Cmax", "setting": "[1]; Korean, fasted state (N = 12)", "result": "2.16559 ± 0.44608", "unit": "µg/mL"}, {"measurement": "Vd/F", "setting": "[1]; Korean, fasted state (N = 12)", "result": "83.84 ± 48.70", "unit": "L"}, {"measurement": "t1/2", "setting": "[1]; Korean, fasted state (N = 12)", "result": "9.06 ± 6.08", "unit": "h"}, {"measurement": "Tmax", "setting": "[1]; Korean, fasted state (N = 12)", "result": "0.50 (0.50–2.00) h"}, {"measurement": "AUCinf", "setting": "[1]; Korean, fed state (N = 12)", "result": "13.1089 ± 5.77131", "unit": "µg·h/mL"}, {"measurement": "AUClast", "setting": "[1]; Korean, fed state (N = 12)", "result": "12.97202 ± 5.73425", "unit": "µg·h/mL"}, {"measurement": "CL/F", "setting": "[1]; Korean, fed state (N = 12)", "result": "6.95 ± 2.29", "unit": "L/h"}, {"measurement": "Cmax", "setting": "[1]; Korean, fed state (N = 12)", "result": "1.83501 ± 0.63711", "unit": "µg/mL"}, {"measurement": "Vd/F", "setting": "[1]; Korean, fed state (N = 12)", "result": "104.18 ± 57.31", "unit": "L"}, {"measurement": "t1/2", "setting": "[1]; Korean, fed state (N = 12)", "result": "10.80 ± 5.10", "unit": "h"}, {"measurement": "Tmax", "setting": "[1]; Korean, fed state (N = 12)", "result": "2.00 (0.50–4.00) h"}, {"measurement": "AUCinf geometric mean ratio (90% confidence interval)", "setting": "[1]; Korean, 80 mg", "result": "1.02 (0.9126–1.1360)"}, {"measurement": "AUClast geometric mean ratio (90% confidence interval)", "setting": "[1]; Korean, 80 mg", "result": "1.02 (0.9088–1.1339)"}, {"measurement": "Cmax geometric mean ratio (90% confidence interval)", "setting": "[1]; Korean, 80 mg", "result": "0.82 (0.7457–0.9094)"}, {"measurement": "Reduction of peak concentrations after a high-fat meal", "setting": "[1]; Koreans and Caucasians, 80 mg", "result": "approximately 20%"}, {"measurement": "Decrease of Cmax in the fed state compared with the fasted state", "setting": "[1]; Koreans, 80 mg", "result": 18, "unit": "%"}, {"measurement": "PK profiles among the Korean, Caucasian, and Chinese subjects", "setting": "[1]; fasted state, 80 mg", "result": "comparable"}, {"measurement": "Effect of the high-fat meal on overall systemic exposure", "setting": "[1]; fed vs fasted state, 80 mg", "result": "not significantly affected"}, {"measurement": "IC50 compared with those of olaparib", "setting": "PARP1", "result": "similar"}, {"measurement": "Infections and infestations: number of events", "setting": "[2]", "result": 1}, {"measurement": "Infections and infestations: number of subjects (percentage of subjects)", "setting": "[2]", "result": "1 (8.3)"}, {"measurement": "Oral herpes: number of events", "setting": "[2]; po", "result": 1}, {"measurement": "Oral herpes: number of subjects (percentage of subjects)", "setting": "[2]; po", "result": "1 (8.3)"}, {"measurement": "Tumor growth inhibition rate", "setting": "[3]", "result": "131.0–135.2%"}]}]}
